These substances were tested on E. coli TOP10 (assay: Suicide expression system (SES) growth inhibition). Conditions: Table 4; variants of SEQ ID NO:10, re-tested in the Bioscreen C.
Format: cell-based

Question: How did the “Growth inhibition (%)” value turn out when “66 (RRRPFRPPFRPPFRPPIRPPLRPPIRP; Synthetic antimicrobial peptide) [compound 66]” was run?
Answer: 76%

Question: “67 (RRRPLRPPLRPPIRPPFRPPVRPPFRP; Synthetic antimicrobial peptide) [compound 67]” was tested. Which “Growth inhibition (%)” value did it give?
Answer: 80%

Question: Which “Growth inhibition (%)” value does the source give for “68 (RRRPIRPPFRPPFRPPLRPPVRPPFRP; Synthetic antimicrobial peptide) [compound 68]” here?
Answer: 78%

Question: “69 (RRRPIRPPFRPPFRPPLRPPFRPPIRP; Synthetic antimicrobial peptide) [compound 69]” was tested. Which “Growth inhibition (%)” value did it give?
Answer: 75%

Question: Which “Growth inhibition (%)” value does the source give for “70 (RRRPLRPPLRPPFRPPIRPPLRPPFRP; Synthetic antimicrobial peptide) [compound 70]” here?
Answer: 76%

Question: With “71 (RRRPLRPPIRPPFRPPIRPPFRPPFRP; Synthetic antimicrobial peptide) [compound 71]” as the substance, how does the “Growth inhibition (%)” value read?
Answer: 82%

Question: With “72 (RRRPIRPPFRPPFRPPFRPPFRPPFRP; Synthetic antimicrobial peptide) [compound 72]” as the substance, how does the “Growth inhibition (%)” value read?
Answer: 49%

Question: With “73 (RRRPFRPPVRPPFRPPVRPPIRPPVRP; Synthetic antimicrobial peptide) [compound 73]” as the substance, how does the “Growth inhibition (%)” value read?
Answer: 65%

Question: For “74 (RRRPFRPPVRPPFRPPFRPPIRPPIRP; Synthetic antimicrobial peptide) [compound 74]”, which “Growth inhibition (%)” value is on record?
Answer: 76%

Question: Which “Growth inhibition (%)” value does the source give for “75 (RRRPFRPPIRPPVRPPFRPPFRPPFRP; Synthetic antimicrobial peptide) [compound 75]” here?
Answer: 79%

Question: Which “Growth inhibition (%)” value does the source give for “76 (RRRPIRPPFRPPIRPPVRPPFRPPIRP; Synthetic antimicrobial peptide) [compound 76]” here?
Answer: 86%

Question: “77 (RRRPFRPPFRPPIRPPVRPPFRPPFRP; Synthetic antimicrobial peptide) [compound 77]” was tested. Which “Growth inhibition (%)” value did it give?
Answer: 72%

Question: How did the “Growth inhibition (%)” value turn out when “78 (RRRPLRPPFRPPFRPPFRPPIRPPVRP; Synthetic antimicrobial peptide) [compound 78]” was run?
Answer: 83%

Question: Which “Growth inhibition (%)” value does the source give for “79 (RRRPFRPPFRPPFRPPVRPPVRPPFRP; Synthetic antimicrobial peptide) [compound 79]” here?
Answer: 82%

Question: Which “Growth inhibition (%)” value does the source give for “80 (RRRPFRPPFRPPIRPPVRPPVRPPFRP; Synthetic antimicrobial peptide) [compound 80]” here?
Answer: 81%

Question: With “81 (RRRPFRPPIRPPFRPPFRPPVRPPIRP; Synthetic antimicrobial peptide) [compound 81]” as the substance, how does the “Growth inhibition (%)” value read?
Answer: 80%

Question: How did the “Growth inhibition (%)” value turn out when “82 (RRRPIRPPFRPPVRPPFRPPFRPPFRP; Synthetic antimicrobial peptide) [compound 82]” was run?
Answer: 71%

Question: With “83 (RRRPLRPPFRPPIRPPVRPPFRPPVRP; Synthetic antimicrobial peptide) [compound 83]” as the substance, how does the “Growth inhibition (%)” value read?
Answer: 72%

Question: Which “Growth inhibition (%)” value does the source give for “84 (RRRPIRPPLRPPIRPPFRPPFRPPLRP; Synthetic antimicrobial peptide) [compound 84]” here?
Answer: 80%

Question: With “85 (RRRPFRPPIRPPIRPPFRPPFRPPIRP; Synthetic antimicrobial peptide) [compound 85]” as the substance, how does the “Growth inhibition (%)” value read?
Answer: 67%

Question: Which “Growth inhibition (%)” value does the source give for “86 (RRRPIRPPFRPPLRPPLRPPVRPPFRP; Synthetic antimicrobial peptide) [compound 86]” here?
Answer: 74%

Question: “87 (RRRPFRPPFRPPIRPPFRPPVRPPVRP; Synthetic antimicrobial peptide) [compound 87]” was tested. Which “Growth inhibition (%)” value did it give?
Answer: 80%

Question: “88 (RRRPFRPPLRPPLRPPVRPPVRPPFRP; Synthetic antimicrobial peptide) [compound 88]” was tested. Which “Growth inhibition (%)” value did it give?
Answer: 82%

Question: How did the “Growth inhibition (%)” value turn out when “89 (RRRPFRPPFRPPFRPPVRPPVRPPLRP; Synthetic antimicrobial peptide) [compound 89]” was run?
Answer: 70%

Question: For “90 (RRRPFRPPIRPPFRPPFRPPVRPPFRP; Synthetic antimicrobial peptide) [compound 90]”, which “Growth inhibition (%)” value is on record?
Answer: 74%

Question: “91 (RRRPFRPPVRPPIRPPVRPPFRPPVRP; Synthetic antimicrobial peptide) [compound 91]” was tested. Which “Growth inhibition (%)” value did it give?
Answer: 52%

Question: “92 (RRRPVRPPIRPPFRPPFRPPFRPPFRP; Synthetic antimicrobial peptide) [compound 92]” was tested. Which “Growth inhibition (%)” value did it give?
Answer: 85%

Question: Which “Growth inhibition (%)” value does the source give for “93 (RRRPFRPPFRPPFRPPVRPPLRPPIRP; Synthetic antimicrobial peptide) [compound 93]” here?
Answer: 61%

Question: Which “Growth inhibition (%)” value does the source give for “94 (RRRPFRPPVRPPIRPPVRPPFRPPFRP; Synthetic antimicrobial peptide) [compound 94]” here?
Answer: 77%

Question: Which “Growth inhibition (%)” value does the source give for “95 (RRRPFRPPLRPPLRPPIRPPVRPPFRP; Synthetic antimicrobial peptide) [compound 95]” here?
Answer: 80%

Question: Which “Growth inhibition (%)” value does the source give for “96 (RRRPFRPPIRPPFRPPIRPPLRPPIRP; Synthetic antimicrobial peptide) [compound 96]” here?
Answer: 71%

Question: How did the “Growth inhibition (%)” value turn out when “97 (RRRPLRPPFRPPFRPPLRPPFRPPIRP; Synthetic antimicrobial peptide) [compound 97]” was run?
Answer: 69%

Question: Which “Growth inhibition (%)” value does the source give for “98 (RRRPFRPPFRPPVRPPIRPPLRPPFRP; Synthetic antimicrobial peptide) [compound 98]” here?
Answer: 63%

Question: For “99 (RRRPFRPPIRPPIRPPFRPPIRPPFRP; Synthetic antimicrobial peptide) [compound 99]”, which “Growth inhibition (%)” value is on record?
Answer: 79%

Question: “100 (RRRPIRPPFRPPFRPPFRPPFRPPFRP; Synthetic antimicrobial peptide) [compound 100]” was tested. Which “Growth inhibition (%)” value did it give?
Answer: 84%

Question: Which “Growth inhibition (%)” value does the source give for “101 (RRRPIRPPFRPPLRPPFRPPIRPPIRP; Synthetic antimicrobial peptide) [compound 101]” here?
Answer: 81%

Question: With “102 (RRRPIRPPFRPPIRPPFRPPLRPPFRP; Synthetic antimicrobial peptide) [compound 102]” as the substance, how does the “Growth inhibition (%)” value read?
Answer: 77%

Question: With “103 (RRRPLRPPIRPPIRPPVRPPFRPPIRP; Synthetic antimicrobial peptide) [compound 103]” as the substance, how does the “Growth inhibition (%)” value read?
Answer: 73%

Question: With “104 (RRRPFRPPFRPPIRPPFRPPFRPPLRP; Synthetic antimicrobial peptide) [compound 104]” as the substance, how does the “Growth inhibition (%)” value read?
Answer: 76%

Question: How did the “Growth inhibition (%)” value turn out when “105 (RRRPIRPPLRPPLRPPFRPPFRPPFRP; Synthetic antimicrobial peptide) [compound 105]” was run?
Answer: 73%

Question: With “106 (RRRPFRPPFRPPFRPPIRPPIRPPLRP; Synthetic antimicrobial peptide) [compound 106]” as the substance, how does the “Growth inhibition (%)” value read?
Answer: 75%

Question: How did the “Growth inhibition (%)” value turn out when “107 (RRRPFRPPFRPPVRPPFRPPIRPPFRP; Synthetic antimicrobial peptide) [compound 107]” was run?
Answer: 69%

Question: Which “Growth inhibition (%)” value does the source give for “108 (RRRPLRPPFRPPIRPPVRPPVRPPFRP; Synthetic antimicrobial peptide) [compound 108]” here?
Answer: 76%

Question: “109 (RRRPFRPPIRPPVRPPLRPPVRPPFRP; Synthetic antimicrobial peptide) [compound 109]” was tested. Which “Growth inhibition (%)” value did it give?
Answer: 71%

Question: “110 (RRRPFRPPLRPPFRPPIRPPIRPPVRP; Synthetic antimicrobial peptide) [compound 110]” was tested. Which “Growth inhibition (%)” value did it give?
Answer: 73%

Question: Which “Growth inhibition (%)” value does the source give for “111 (RRRPLRPPVRPPFRPPVRPPLRPPFRP; Synthetic antimicrobial peptide) [compound 111]” here?
Answer: 59%

Question: For “112 (RRRPFRPPIRPPFRPPVRPPVRPPVRP; Synthetic antimicrobial peptide) [compound 112]”, which “Growth inhibition (%)” value is on record?
Answer: 69%

Question: “113 (RRRPLRPPVRPPFRPPVRPPFRPPFRP; Synthetic antimicrobial peptide) [compound 113]” was tested. Which “Growth inhibition (%)” value did it give?
Answer: 75%

— US7833967B2, “Synthetic antimicrobial polypeptides” (priority 2003, dated 2010)
